The text below walks through data of patent publication US20050245527A1, “Nitrogen containing heterocyclic compounds and medicines containing the same” (priority 2002, published 2005).

Assay [1] deals with left saphenous nerve of rats (ectopic firing). The experiment in a line: Inhibition of ectopic firing. In kind it is in vivo. The settings on record: Rattus norvegicus, iv; rats with cut left saphenous nerve, urethane anesthesia, compound via catheter in right cervical vein, number of firings in 10 seconds; read-out: Inhibition of ectopic firing (ID50). How it is done:
<Inhibition of Ectopic Firing>
(1) The inhibitory effect on ectopic firing was evaluated by the following method, with reference to Burchiel, K J., Exp. Neurol., 102, 249-253 (1988).
(2) The left saphenous nerve of rats, in which ectopic firing was observed, was cut near the knee joint, and approximately 3 mm was cut off to avoid reattachment of the cut nerve. After more than a week, the left saphenous nerve was exposed under urethane (1 g/kg body weight) anesthesia, and the proximal part up to approximately 1 cm from the cut site was detached from the surrounding tissue. A catheter was inserted in the right cervical vein beforehand for administration of the compound.
(3) The detached nerve was placed on a platinum hook electrode and wetted with liquid paraffin to avoid drying of the nerve. The electrode was connected to a microelectrode amplifier, and the change in potential was recorded from an oscilloscope through an A/D converter onto a computer. The recorded nerve firing was evaluated based on the number of firings in 10 seconds, using analyzing software (AcqKnowledge).

Another assay relates to sodium channels. It counts as cell-based. Particulars: read-out: IC50 (μM), sodium channel-inhibiting activity; rat fetal cultured hippocampal neurons, SBFI fluorescence in the presence of 4-aminopyridine, 5 minutes after addition, 1 μM tetrodotoxin = 100%.

A value given as a limit tells only on which side of the number the result lay.

Consider `O=c1[nH]ccnc1CN1CCC(c2nc(-c3ccccc3F)no2)CC1` [Example 187, 3-[4-[3-(2-Fluorophenyl)-1,2,4-oxadiazol-5-yl]piperidino]methyl-1H-pyrazin-2-one], for which the ED50 in assay [1] lay in the range of 0.5 to 1 mg/kg. Further, the half-maximal inhibitory concentration (IC50) – broadly, the concentration needed to halve the response being measured – with sodium channels amounted to 3.5 µM.

As for `O=c1[nH]ccnc1CN1CCC(c2nc(-c3cccc(F)c3)no2)CC1` [Example 188, 3-[4-[3-(3-Fluorophenyl)-1,2,4-oxadiazol-5-yl]piperidino]methyl-1H-pyrazin-2-one], the ED50 in assay [1] was in the range of 0.5 to 1 mg/kg. Further, the IC50 in the assay on sodium channels is 5 µM.

With `Cc1cccc(CC(=O)C2CCN(Cc3ncc[nH]c3=O)CC2)c1` [Example 192, 3-[4-[2-(3-Methylphenyl)acetyl]piperidino]methyl-1H-pyrazin-2-one], the ED50 in assay [1] is 0.5 to 1 mg/kg. In addition, in the assay with sodium channels, the IC50 is 3.8 µM.

Take `COc1ccccc1CC(=O)C1CCN(Cc2ncc[nH]c2=O)CC1` [Example 193, 3-[4-[2-(2-Methoxyphenyl)acetyl]piperidino]methyl-1H-pyrazin-2-one]: the ED50 in assay [1] is less than 0.5 mg/kg. Besides, in the assay with sodium channels, the IC50 is 2.9 µM.

Take `O=C(Cc1c(F)cccc1F)C1CCN(Cc2ncc[nH]c2=O)CC1` [Example 195, 3-[4-[2-(2,6-Difluorophenyl)acetyl]piperidino]methyl-1H-pyrazin-2-one]: the ED50 in assay [1] fell in the range of 0.5 to 1 mg/kg. Besides, the IC50 in the assay with sodium channels stood at 2 µM.

As to `O=c1[nH]ccnc1CN1CCC(COc2ccccc2)CC1` [Example 198, 3-[4-(Phenoxymethyl)piperidino]methyl-1H-pyrazin-2-one], the ED50 in assay [1] is less than 0.5 mg/kg. The concentration for half-maximal inhibition (IC50) in the assay on sodium channels was found to be 1.6 µM.

Take `O=C(Cc1cccc(F)c1F)C1CCN(Cc2ncc[nH]c2=O)CC1` [Example 200, 3-[4-[2-(2,3-Difluorophenyl)acetyl]piperidino]methyl-1H-pyrazin-2-one]: in assay [1], the ED50 lay in the range of 0.5 to 1 mg/kg. In the assay on sodium channels, the half-maximal inhibitory concentration (IC50) came out at 1.6 µM.

For `O=c1[nH]ccnc1CN1CCC(COc2c(F)cccc2F)CC1` [Example 201, 3-[4-(2,6-Difluorophenoxymethyl)piperidino]methyl-1H-pyrazin-2-one], in assay [1], the ED50 lay within 0.5 to 1 mg/kg. For the same molecule, the IC50 with sodium channels was determined as 6.7 µM.

`O=c1[nH]c2ccccc2nc1CN1CCC(COc2ccccc2F)CC1` [Example 204, 3-[4-(2-Fluorophenoxymethyl)piperidino]methyl-1H-quinoxalin-2-one]: in assay [1], the ED50 was in the range of 0.5 to 1 mg/kg. Besides, the IC50 in the assay with sodium channels stood at 8.1 µM.

Turning to `COc1ccccc1OCC1CCN(Cc2nc3ccccc3[nH]c2=O)CC1` [Example 205, 3-[4-(2-Methoxyphenoxymethyl)piperidino]methyl-1H-quinoxalin-2-one], the ED50 in assay [1] fell in the range of 0.5 to 1 mg/kg. Besides, in the assay on sodium channels, the IC50 stood at 2.6 µM.

`O=C(Cc1ccccc1F)C1CCCN(Cc2ncc[nH]c2=O)C1` (centres unmarked) [Example 208, 3-[3-[2-(2-Fluorophenyl)acetyl]piperidino]methyl-1H-pyrazin-2-one]: in assay [1], the ED50 is 0.5 to 1 mg/kg. The IC50 in the assay on sodium channels is 5.5 µM.

With `Cc1ccccc1OCC1(O)CCN(Cc2ncc[nH]c2=O)CC1` [Example 210, 3-[4-Hydroxy-4-(2-methylphenoxymethyl)piperidino]methyl-1H-pyrazin-2-one], the ED50 in assay [1] was in the range of 0.5 to 1 mg/kg. Further, in the assay on sodium channels, the IC50 was 6 µM.

`Cc1ccc(-c2ccccc2)n1CC1(O)CCN(Cc2ncc[nH]c2=O)CC1` [Example 212, 3-[4-Hydroxy-4-(2-methyl-5-phenylpyrrol-1-yl)methyl-piperidino]methyl-1H-pyrazin-2-one]: the ED50 in assay [1] lay within 0.5 to 1 mg/kg. The IC50 in the assay with sodium channels amounted to 6.1 µM.

For the molecule `O=C(c1ccccc1F)N(C(=O)c1ccccc1F)C1(O)CCN(Cc2ncc[nH]c2=O)CC1` [Example 214, 2-Fluoro-N-(2-fluorobenzoyl)-N-[4-hydroxy-1-(3-oxo-3,4-dihydro-2-pyrazinylmethyl)piperidin-4-yl]benzamide], in assay [1], the ED50 was in the range of 0.5 to 1 mg/kg. In addition, the IC50 with sodium channels turned out to be 8.7 µM.

Consider `Cc1ccccc1CCC1(O)CCN(Cc2ncc[nH]c2=O)CC1` [Example 222, 3-[4-Hydroxy-4-[2-(2-methylphenyl)ethyl]piperidino]methyl-1H-pyrazin-2-one], for which the ED50 in assay [1] lay within 0.5 to 1 mg/kg. Moreover, the 50% inhibitory concentration (IC50) with sodium channels came to 2.5 µM.

In the case of `O=c1[nH]ccnc1CN1CCC(F)(COc2ccccc2F)CC1` [Example 223, 3-[4-Fluoro-4-(2-fluorophenoxymethyl)piperidino]methyl-1H-pyrazin-2-one], the ED50 in assay [1] lay in the range of 0.5 to 1 mg/kg. The IC50 with sodium channels came out at 6 µM.

Consider `O=c1[nH]ccnc1CN1CCC(CCc2ccccc2F)(COc2ccccc2F)CC1` [Example 224, 3-[4-(2-Fluorophenoxymethyl)-4-[2-(2-fluorophenyl)ethyl]piperidino]methyl-1H-pyrazin-2-one], for which the ED50 in assay [1] was in the range of 0.5 to 1 mg/kg. In addition, the IC50 in the assay on sodium channels was determined as 1.6 µM.

For the molecule `Cc1ccccc1OCC1(CCc2ccccc2F)CCN(Cc2ncc[nH]c2=O)CC1` [Example 225, 3-[4-[2-(2-Fluorophenyl)ethyl]-4-(2-methylphenoxymethyl)piperidino]methyl-1H-pyrazin-2-one], the ED50 in assay [1] lay within 0.5 to 1 mg/kg. Besides, in the assay with sodium channels, the IC50 came out at 1.6 µM.

On to `O=c1cncc(CCN2CCC(COc3ccccc3Cl)CC2)[nH]1` [Example 235, 6-[2-[4-(2-Chlorophenoxymethyl)piperidino]ethyl]-1H-pyrazin-2-one], for which, in assay [1], the ED50 was less than 0.5 mg/kg. The IC50 in the assay on sodium channels is 5 µM.

For `Cc1ccccc1OCC1CCN(CCc2cncc(=O)[nH]2)CC1` [Example 236, 6-[2-[4-(2-Methylphenoxymethyl)piperidino]ethyl]-1H-pyrazin-2-one], in assay [1], the ED50 is less than 0.5 mg/kg. The IC50 with sodium channels worked out at 7 µM.

For the molecule `O=c1cncc(CCN2CCC(COc3ccc(F)cc3F)CC2)[nH]1` [Example 239, 6-[2-[4-(2,4-Difluorophenoxymethyl)piperidino]ethyl]-1H-pyrazin-2-one], the ED50 in assay [1] was 0.5 to 1 mg/kg. For the same molecule, the IC50 in the assay with sodium channels came out at 9.1 µM.

For the molecule `O=c1cncc(CCN2CCC(COc3cc(F)ccc3F)CC2)[nH]1` [Example 241, 6-[2-[4-(2,5-Difluorophenoxymethyl)piperidino]ethyl]-1H-pyrazin-2-one], in assay [1], the ED50 was 0.5 to 1 mg/kg. For the same molecule, the IC50 in the assay with sodium channels came to 5 µM.

Take `O=c1cncc(CCN2CCC(CCc3ccccc3F)CC2)[nH]1` [Example 243, 6-[2-[4-[2-(2-Fluorophenyl)ethyl]piperidino]ethyl]-1H-pyrazin-2-one]: the ED50 in assay [1] is less than 0.5 mg/kg. Besides, the 50% inhibitory concentration (IC50) in the assay on sodium channels is 5.7 µM.

As to `Cc1ccc(-c2ccccc2)n1CC1(O)CCN(Cc2ccc[nH]c2=O)CC1` [Example 251, 3-[4-Hydroxy-4-(2-methyl-5-phenylpyrrol-1-yl)methyl-piperidino]methyl-1H-pyridin-2-one], in assay [1], the ED50 is 0.5 to 1 mg/kg. Moreover, in the assay with sodium channels, the IC50 amounted to 8.4 µM.

Regarding `O=c1[nH]cccc1CN1CCC(O)(COc2ccccc2F)CC1` [Example 253, 3-[4-Hydroxy-4-(2-fluorophenoxymethyl)piperidino]methyl-1H-pyridin-2-one], the ED50 in assay [1] is less than 0.5 mg/kg. The IC50 in the assay on sodium channels is 9.2 µM.

With `O=c1[nH]cc(Cl)cc1CN1CCC(O)(COc2ccccc2F)CC1` [Example 254, 5-Chloro-3-[4-hydroxy-4-(2-fluorophenoxymethyl)piperidino]methyl-1H-pyridin-2-one], in assay [1], the ED50 is 0.5 to 1 mg/kg. Further, in the assay on sodium channels, the IC50 amounted to 8.9 µM.

As to `O=c1[nH]cccc1CN1CCC(CO)(CCc2ccccc2)CC1` [Example 256, 3-[4-Hydroxymethyl-4-(2-phenylethyl)piperidino]methyl-1H-pyridin-2-one], the ED50 in assay [1] lay in the range of 0.5 to 1 mg/kg. In addition, the IC50 in the assay on sodium channels amounted to 5.8 µM.

Regarding `O=c1[nH]cccc1CN1CCC(O)(C#Cc2ccccc2F)CC1` [Example 258, 3-[4-Hydroxy-4-[(2-fluorophenyl)ethynyl]piperidino]methyl-1H-pyridin-2-one], the ED50 in assay [1] was less than 0.5 mg/kg. Also, the IC50 in the assay on sodium channels stood at 4.2 µM.

For `CSc1ccccc1CC(=O)C1CCN(Cc2ncc[nH]c2=O)CC1` [Example 343, 3-[4-[2-[2-(Methylthio)phenyl]acetyl]piperidino]methyl-1H-pyrazin-2-one], the ED50 in assay [1] is less than 0.5 mg/kg. Moreover, in the assay with sodium channels, the IC50 was found to be 3.5 µM.

On to `O=C(Cc1ccccc1C(F)(F)F)C1CCN(Cc2ncc[nH]c2=O)CC1` [Example 344, 3-[4-[2-[2-(Trifluoromethyl)phenyl]acetyl]piperidino]methyl-1H-pyrazin-2-one], for which the ED50 in assay [1] was less than 0.5 mg/kg. Besides, in the assay with sodium channels, the half-inhibitory concentration (IC50) turned out to be 4.4 µM.

As for `CCOc1ccccc1CC(=O)C1CCN(Cc2ncc[nH]c2=O)CC1` [Example 347, 3-[4-[2-(2-Ethoxyphenyl)acetyl]piperidino]methyl-1H-pyrazin-2-one], the ED50 in assay [1] was less than 0.5 mg/kg. Besides, the concentration for half-maximal inhibition (IC50) in the assay on sodium channels is 3 µM.

Take `CC(c1ncc[nH]c1=O)N1CCC(C(=O)Cc2ccccc2F)CC1` (centres unmarked) [Example 350, 3-[1-[4-[2-(2-Fluorophenyl)acetyl]piperidino]ethyl]-1H-pyrazin-2-one]: the ED50 in assay [1] was less than 0.5 mg/kg. The IC50 in the assay with sodium channels is 6 µM.

For `CC1(C(=O)Cc2ccccc2F)CCN(Cc2ncc[nH]c2=O)CC1` [Example 365, 3-[4-[2-(2-Fluorophenyl)acetyl]-4-methylpiperidino]methyl-1H-pyrazin-2-one], the ED50 in assay [1] was less than 0.5 mg/kg. Besides, in the assay on sodium channels, the IC50 turned out to be 3.4 µM.

For the molecule `CC1(C(=O)Cc2ccccc2C(F)(F)F)CCN(Cc2ncc[nH]c2=O)CC1` [Example 373, 3-[4-Methyl-4-[2-[2-(trifluoromethyl)phenyl]acetyl]piperidino]methyl-1H-pyrazin-2-one], in assay [1], the ED50 is less than 0.5 mg/kg. In addition, the IC50 with sodium channels amounted to 1.6 µM.
